Measured values as given in patent US12495798B2, “Nicotinamide compound and herbicidal composition comprising compound” (KOREA RESEARCH INSTITUTE OF CHEMICAL TECHNOLOGY, priority 2019, dated 2025).

Experiments:
Format in all cases: in vivo
sorghum = assay: Herbicidal activity test against upland field weeds (foliar treatment test); conditions: 50 g ai/ha, scale 0-100; for plant injury at 50 g/ha: Sorghum
Procedure, shortened: (§1)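 Greenhouse-grown plants (30±5 °C, 14/10 h light/dark) foliar hand-sprayed with compound in 50% acetone, 0.1% Tween-20 at 50 or 75 g a.i./ha. Control visually scored 0 (none) to 100 (complete) versus untreated after 14 days, or 21 days if needed.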

velvetleaf [1] = assay: as above; set-up: key to Foliar treatment herbicidal activity, velvet leaf: 0 (no control); 100 (complete control); conditions: 50 g ai/ha; for pest or weed control at 50 g/ha: Abutilon theophrasti, scale 0-100, read-out: Foliar treatment herbicidal activity, velvet leaf
Procedure, shortened: as §1

cocklebur = assay: as above; conditions: 50 g ai/ha, scale 0-100; for pest or weed control at 50 g/ha: Xanthium strumarium
Procedure, shortened: as §1

barnyard grass = assay: Herbicidal activity test against upland field weeds (soil treatment test); set-up: key to Soil treatment herbicidal activity, barnyard grass: 0 (no control); 100 (complete control); conditions: 50 g ai/ha, scale 0 (no control) to 100 (complete control)
Procedure, shortened: (§2)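 Pre-emergence soil surface spray, day after sowing, into sandy loam pots with fertilizer; compounds at 50 or 75 g a.i./ha in 50% acetone, 0.1% Tween-20. Greenhouse at 30±5 °C, 14/10 h light/dark; visual control rated 0–100 against untreated after 14 days (21 if needed).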

crabgrass = assay: as above; set-up: key to Soil treatment herbicidal activity, Crabgrass: 0 (no control); 100 (complete control); conditions: 50 g ai/ha, scale 0 (no control) to 100 (complete control)
Procedure, shortened: as §2

velvetleaf [2] = assay: as above; set-up: key to Soil treatment herbicidal activity, velvet leaf: 0 (no control); 100 (complete control); conditions: 50 g ai/ha, scale 0 (no control) to 100 (complete control)
Procedure, shortened: as §2

corn = assay: Phytotoxicity test for upland field crops (foliar treatment test); set-up: key: 0 (no harm); 9 (complete withered)
Procedure, shortened: (§3)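 Crops grown in greenhouse pots (30±5 °C, 14/10 h light) were foliar-sprayed with compound at 19–300 g a.i./ha in 33% acetone/0.1% Tween-20. Phytotoxicity scored 0 (no harm) to 9 (complete withering) versus untreated control at 7 and 14 days, 21 if needed.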

cotton = assay: as above; set-up: key: 0 (no harm); 9 (complete withered)
Procedure, shortened: as §3

rice = assay: as above; set-up: key: 0 (no harm); 9 (complete withered)
Procedure, shortened: as §3

soybean = assay: as above; set-up: key: 0 (no harm); 9 (complete withered)
Procedure, shortened: as §3

wheat = assay: as above; set-up: key: 0 (no harm); 9 (complete withered)
Procedure, shortened: as §3

quack grass [3] = assay: Herbicidal activity test against upland field weeds (foliar treatment test); set-up: key to Foliar treatment herbicidal activity, quack grass: 0 (no control); 100 (complete control); conditions: 50 g ai/ha, scale 0-100
Procedure, shortened: as §1

quack grass [4] = assay: Herbicidal activity test against upland field weeds (soil treatment test); set-up: key to Soil treatment herbicidal activity, quack grass: 0 (no control); 100 (complete control); conditions: 50 g ai/ha, scale 0 (no control) to 100 (complete control)
Procedure, shortened: as §2

[5] = 50 g ai/ha, Corn (7 days after treatment)
[6] = 50 g ai/ha, Corn (14 days after treatment)
[7] = 100 g ai/ha, Corn (7 days after treatment)
[8] = 100 g ai/ha, Corn (14 days after treatment)
[9] = 50 g ai/ha, Cotton (7 days after treatment)
[10] = 50 g ai/ha, Cotton (14 days after treatment)
[11] = 100 g ai/ha, Cotton (7 days after treatment)
[12] = 100 g ai/ha, Cotton (14 days after treatment)
[13] = 50 g ai/ha, Rice (7 days after treatment)
[14] = 50 g ai/ha, Rice (14 days after treatment)
[15] = 100 g ai/ha, Rice (7 days after treatment)
[16] = 100 g ai/ha, Rice (14 days after treatment)
[17] = 50 g ai/ha, Soybean (7 days after treatment)
[18] = 50 g ai/ha, Soybean (14 days after treatment)
[19] = 100 g ai/ha, Soybean (7 days after treatment)
[20] = 100 g ai/ha, Soybean (14 days after treatment)
[21] = 50 g ai/ha, Wheat (7 days after treatment)
[22] = 50 g ai/ha, Wheat (14 days after treatment)
[23] = 100 g ai/ha, Wheat (7 days after treatment)
[24] = 100 g ai/ha, Wheat (14 days after treatment)

Row | SMILES | Soil treatment herbicidal activity, barnyard grass (barnyard grass) | Foliar treatment phytotoxicity, Corn (corn; [5]) | Foliar treatment phytotoxicity, Corn (corn; [6]) | Foliar treatment phytotoxicity, Corn (corn; [7]) | Foliar treatment phytotoxicity, Corn (corn; [8]) | Foliar treatment phytotoxicity, Cotton (cotton; [9]) | Foliar treatment phytotoxicity, Cotton (cotton; [10]) | Foliar treatment phytotoxicity, Cotton (cotton; [11]) | Foliar treatment phytotoxicity, Cotton (cotton; [12]) | Foliar treatment phytotoxicity, Rice (rice; [13]) | Foliar treatment phytotoxicity, Rice (rice; [14]) | Foliar treatment phytotoxicity, Rice (rice; [15]) | Foliar treatment phytotoxicity, Rice (rice; [16]) | Foliar treatment phytotoxicity, Wheat (wheat; [21]) | Foliar treatment phytotoxicity, Wheat (wheat; [22]) | Foliar treatment phytotoxicity, Wheat (wheat; [23]) | Foliar treatment phytotoxicity, Wheat (wheat; [24]) | plant injury at 50 g/ha (sorghum) | pest or weed control at 50 g/ha (velvetleaf [1]) | pest or weed control at 50 g/ha (cocklebur) | other results
1 | Cn1cnc(COCc2nc(C(F)F)ccc2C(=O)Nc2nnnn2C)n1 [Compound No. 2-85] | 0 | 0 | 0 | 0 | 0 | 7 | 7 | 8 | 9 | 7 | 7 | 8 | 1 | 0 | 0 | 2 | 0 | – | – | – | Foliar treatment herbicidal activity, Sorghum (sorghum): 5; Foliar treatment herbicidal activity, velvet leaf (velvetleaf [1]; scale 0-100): 100; Foliar treatment herbicidal activity, Cocklebur (cocklebur): 97; Soil treatment herbicidal activity, Crabgrass (crabgrass): 0; Soil treatment herbicidal activity, velvet leaf (velvetleaf [2]): 20; Foliar treatment phytotoxicity, Soybean (soybean; [17]): 4; Foliar treatment phytotoxicity, Soybean (soybean; [18]): 6; Foliar treatment phytotoxicity, Soybean (soybean; [19]): 6; Foliar treatment phytotoxicity, Soybean (soybean; [20]): 7
2 | COc1nc(COCc2nc(C(F)(F)F)ccc2C(=O)Nc2nnnn2C)nn1C [Compound No. 2-129, 2-(((5-methoxy-1-methyl-1H-1,2,4-triazol-3-yl)methoxy)methyl)-N-(1-methyl-1H-tetrazol-5-yl)-6-(trifluoromethyl)nicotinamide] | 0 | 0 | 0 | 0 | 0 | – | – | – | – | – | – | – | – | 1 | 1 | 2 | 2 | 40% | 70% | 70% | Foliar treatment herbicidal activity, quack grass (quack grass [3]): 0; Soil treatment herbicidal activity, quack grass (quack grass [4]): 0; Soil treatment herbicidal activity, Crabgrass (crabgrass): 0
3 | Cn1nnnc1COc1nc(C(F)(F)F)ccc1C(=S)Nc1nnnn1C [Compound No. 1-43, N-(1-methyl-1H-tetrazol-5-yl)-2-((1-methyl-1H-tetrazol-5-yl)methoxy)-6-(trifluoromethyl)pyridin-3-carbothioamide] | 0 | – | – | – | – | – | – | – | – | – | – | – | – | – | – | – | – | 60% | 90% | 90% | pest or weed control at 50 g/ha (quack grass [3]): 30%; Soil treatment herbicidal activity, quack grass (quack grass [4]): 0; pest or weed control at 50 g/ha (crabgrass; Digitaria sanguinalis): 20%; pest or weed control at 50 g/ha (velvetleaf [2]; Abutilon theophrasti, read-out: Soil treatment herbicidal activity, velvet leaf): 90%
4 | Cn1nnnc1NC(=O)c1ccc(C(F)(F)F)nc1OCc1nnnn1C(F)F [Compound No. 1-26, 2-((1-(difluoromethyl)-1H-tetrazol-5-yl)methoxy)-N-(1-methyl-1H-tetrazol-5-yl)-6-(trifluoromethyl)nicotinamide] | 100 | 1 | 0 | 2 | 2 | 2 | 6 | 4 | 9 | 3 | 6 | 4 | 7 | 0 | 0 | 1 | 2 | 70% | 50% | 70% | Foliar treatment herbicidal activity, quack grass (quack grass [3]): 0; Soil treatment herbicidal activity, quack grass (quack grass [4]): 0; Soil treatment herbicidal activity, velvet leaf (velvetleaf [2]): 100; Foliar treatment phytotoxicity, Soybean (soybean; [17]): 5; Foliar treatment phytotoxicity, Soybean (soybean; [18]): 5; Foliar treatment phytotoxicity, Soybean (soybean; [19]): 5; Foliar treatment phytotoxicity, Soybean (soybean; [20]): 5
5 | Cc1nc(COCc2nc(C(F)(F)F)ccc2C(=S)Nc2nnnn2C)nn1C [Compound No. 2-117, 2-(((1,5-dimethyl-1H-1,2,4-triazol-3-yl)methoxy)methyl)-N-(1-methyl-1H-tetrazol-5-yl)-6-(trifluoromethyl)pyridin-3-carbothioamide] | – | 1 | 1 | 3 | 2 | 3 | 2 | 4 | 2 | 3 | 6 | 4 | 5 | 0 | 0 | 1 | 0 | 40% | 90% | 90% | Foliar treatment herbicidal activity, quack grass (quack grass [3]): 0; Foliar treatment phytotoxicity, Soybean (soybean; [17]): 3; Foliar treatment phytotoxicity, Soybean (soybean; [18]): 5; Foliar treatment phytotoxicity, Soybean (soybean; [19]): 4; Foliar treatment phytotoxicity, Soybean (soybean; [20]): 6
